PubChem BioAssay AID489041 (Sanford-Burnham Center for Chemical Genomics, 2010)
pIC50: −log10 of the molar value. Activity calls are given as the source filed them. No rule for the calls is given here.

Tested on: HEK-293T NF-kB luciferase reporter counterscreen, luminescence
Test: NF-kB reporter inhibition in HEK-293T, dose response, counter-screen for T-cell antigen receptor NF-kB inhibitors, HEK-293T cells, luminescence (AID 489041)

Row | Structure (SMILES) | pIC50 | IC50
1 | O=C(CNC(=O)c1ccco1)N=Nc1c(O)n(CCc2ccccc2)c2ccccc12 | 5.29 | –
2 | COCCn1c(C)cc(C2=NNC(=Nc3ccccc3F)SC2)c1C | 4.75 | –
3 | c1cc2c(cc1C1=NNC(=NC3CC3)SC1)OCCO2 | 5.63 | –
4 | COc1ccc(C2=NOC(C(=O)NCc3cccs3)C2)cc1OC (configuration not stated) | – | 35.2 µM (inactive)
5 | CCc1ccc(/C=N/NC(=O)c2cc(C3CC3)nc3ccccc23)s1 | 4.99 | –
6 | CCOc1ccc(-c2[nH]ncc2-c2ccc(OC)c(OC)c2)c(O)c1 | 4.98 | –
7 | COc1ccc(NC(=O)C(=O)NCC2CCCN2S(=O)(=O)c2ccc(C)cc2)cc1 (configuration not stated) | 6.16 | –
8 | COc1cc2c(cc1O)CC[C@@H]1[C@@H]2CC[C@]2(C)[C@@H](O)CC[C@@H]12 | – | 23 µM (inactive)
9 | Cc1ccc(NS(=O)(=O)c2ccc(C(=O)NC3CCN(Cc4ccccc4)CC3)cc2)cc1 | 5.12 | –
10 | Cc1oc2c(c1C(=O)NCc1cccnc1)C(=O)c1ccccc1C2=O | 5.83 | –
11 | CCOC(=O)CC1CCCCN1C(=O)c1cc(COc2cccc3cnccc23)on1 (configuration not stated) | 5.74 | –
12 | CCc1cc2c(=O)nc3n(c2s1)Cc1ccccc1/C3=C(/O)c1cccc([N+](=O)[O-])c1 | – | > 80 µM (inactive)
13 | Cc1ccc(/C=N/NC(=O)C2COc3ccccc3O2)s1 (configuration not stated) | – | 51.6 µM (inactive)
14 | Cn1cc(C(=O)N/N=C/c2c(O)ccc3ccccc23)ccc1=O | – | > 80 µM (inactive)
15 | O=S1(=O)C=C(Sc2nc3ccccc3s2)c2ccccc21 | 5.25 | –
16 | CC(C)c1oc(=O)cc2c1[C@@H](O)[C@H]1OC(=O)[C@@]3(C)CC[C@@H](O)[C@@]2(C)C13 (some centres not stated) | 5.34 | –
17 | Cc1ccc(-c2cc(-c3ccc(C)cc3)[n+](-c3ccccc3)c(-c3ccc(C)cc3)c2)cc1 | 5.96 | –
18 | CCCCCOC(=O)c1[nH]c2c(c1C)C(=O)CC(c1ccco1)C2 (configuration not stated) | 6.39 | –
19 | COc1cc([C@@H]2c3cc4c(cc3[C@@H](OC)[C@H]3COC(=O)[C@H]23)OCO4)cc(OC)c1O | – | > 80 µM (inactive)
20 | O=C(c1ccccc1)c1cc([N+](=O)[O-])ccc1N1CCOCC1 | 4.77 | –
21 | COc1ccc(C2=NOC(C(=O)NCc3ccc(F)cc3)C2)cc1OC (configuration not stated) | 4.83 | –

Row | Structure (SMILES) | pIC50 | IC50
22 | COc1cc(NC(=O)N2CCNC2=O)cc(C(=O)Nc2cccc(C(F)(F)F)c2)c1 | 5.66 | –
23 | Cc1ccc(S(=O)(=O)NCc2ccncc2)cc1C | 4.81 | –
24 | COC(=O)c1ccccc1NC(=O)Cn1c(-c2nonc2N)nc2ccccc21 | 5.42 | –
25 | Cc1nc(SCC(=O)Nc2nc3ccccc3s2)c(C#N)c(C)c1C | > 6.80 | –
26 | O=C(Nc1ccc(N2CCCCC2)cc1)c1ccccn1 | 5.49 | –
27 | COC(=O)c1cn(NC(=O)c2cc([N+](=O)[O-])ccc2F)c(=O)c2ccccc12 | 5.36 | –
28 | COc1ccc(CNC(=O)c2c(C)oc3c2C(=O)c2ccccc2C3=O)cc1 | 5.67 | –
29 | COc1ccc(-n2nnnc2-c2cccc(OC)c2)cc1 | 4.71 | –
30 | Cc1ccc(C(=O)Nc2cc3ccccc3oc2=O)cc1 | 6.03 | –
31 | CCCC1=Nc2cc(C(=O)NCCCOCC)ccc2Sc2ccccc21 | 6.01 | –
32 | CN1/C(=C\C(=O)C[n+]2ccc3ccccc3c2)C(C)(C)c2ccccc21 | 5.34 | –
33 | O=C(Nc1nc(-c2ccccc2)cs1)c1ccc(N2CCOCC2)c([N+](=O)[O-])c1 | 5.96 | –
34 | COc1ccccc1CNS(=O)(=O)c1ccc(-c2cnc(C3CC3)o2)cc1 | 5.59 | –
35 | C=C(C)COc1ccc(-c2n[nH]c(C)c2-c2ccc(OC)c(OC)c2)c(O)c1 | 5.03 | –
36 | CCOc1ccc(N(CC(=O)Nc2ccccc2C)S(=O)(=O)c2c(C)noc2C)cc1 | 4.77 | –
37 | Oc1ccc(Nc2nc3ccccc3nc2Nc2ccc(O)cc2)cc1 | 4.75 | –
38 | Cc1ccc(C(=O)c2cc([N+](=O)[O-])ccc2N2CCCCC2)c(C)c1 | 5.14 | –
39 | O=C1c2c(O)ccc(O)c2C(=O)c2c(NCCNCCO)ccc(NCCNCCO)c21 | 4.97 | –
40 | Cc1c(C(=O)OCC(C)C)[nH]c2c1C(=O)CC(c1cccs1)C2 (configuration not stated) | 6.39 | –
41 | Cc1ccnc2c1ccc1c(C)ccnc12 | – | > 80 µM (inactive)
42 | COc1ccc(/C=N/Nc2cc(C)nc3ccc(OC)cc23)c(OC)c1 | – | 25.7 µM (inactive)
